Data as given in patent US6117976A, “Manufacture and use of polypeptides tagged using binding molecules” (Medical Research Council, priority 1993, dated 2000).
“Also recorded” adds a separate entry of the source. Like-named read-outs stand apart in the source and are kept apart here. No end group written: not given here.

Experiments:
[1] = target: T1, calmodulin (Homo sapiens, UniProt P0DP23); assay: Native gel electrophoresis of fluoresceinated TAG peptides with calmodulin; type: binding; details: excess calmodulin, TBS 1 mM CaCl2, 15% native gel
Excerpt: FIGS. 9A and 9B: Fluorescent and Coomassie blue detection of fluorescent peptide/calmodulin complexes. Native gel electrophoresis of calmodulin and fluoresceinated TAG1 (Track 1), calmodulin and fluoresceinated TAG2 (Track 2), calmodulin and fluoresceinated TAG3 (Track 3), and calmodulin and fluoresceinated TAG4 (Track 4). The gel was first imaged on a UV transilluminator and photographed (FIG. 9A) and then stained with Coomassie blue and photographed (FIG. 9B).
For peptide fluoresceination, 1 mg of each peptide was dissolved in 1 ml of 100 mM NaHCO3, pH 8.9. One volume of peptide was mixed with one volume of water and 2 volumes of 2 mM iodoacetamidofluorescein (Molecular Probes Inc.) in dimethylformamide. The reaction was allowed to proceed for 15 minutes then quenched by adding dithiothreitol to 10 mM final concentration. The fluoresceinated peptides were separated from unreacted fluorescein using a Millipore MEM-SEP cartridge column (TBS=loading and wash buffer; TBS+0.5 M NaCl=elution buffer).
A 20 μl reaction was set up containing ca. 0.4 μg of fluoresceinated peptide and 18 μg of calmodulin (Sigma) in TBS containing 1 mM CaCl2 (TBS is 50 mM Tris-HCl, pH 7.4, 100 mM NaCl in water).

[2] = target: T1, calmodulin; details: cited from earlier work
[3] = target: T1, calmodulin; assay: Native gel autoradiography of 2-[125I]-melatonin with calmodulin; type: binding; details: 1 μCi 2-[125I]-melatonin, 15% polyacrylamide gel, 0.5 mM CaCl2, no SDS
Experimental: In order to assess this, 1 μl calmodulin (1 mg/ml) was incubated with 1 μCi 2-[^125 I]-melatonin in 9 μl TBSC and run on a 15% polyacrylamide gel. The gel was as the running gel of Laemmli (Nature 1970 220 680-685), but with 0.5 mM CaCl2 and no SDS in both gel and buffer.

[4] = target: T1, calmodulin; details: 600 nM calmodulin, 50 nM fluorescein-labeled TAG3, 7 μM unlabelled peptide, on ice, up to 4 hrs
Experimental: 600 nM calmodulin was pre-mixed in TBSC and 10% sucrose with 50 nM fluorescein-labeled TAG3 peptide. Aliquots were incubated on ice with a large excess (7 μM) unlabeled peptide for 0, 0.5, 1, 2, and 4 hrs, and analysed on a native 15% polyacrylamide gel (as in Laemmli, 1970 supra except with CaCl2 to 1 MM) in a Hoefer Mighty Small apparatus, and imaged with a cooled CCD-camera based fluorescent gel imaging system developed in collaboration with Confocal Technologies (Liverpool, UK) and Digital Pixel (Brighton, UK).
600 nM calmodulin was pre-mixed in TBSC and 10% sucrose with 50 nM fluorescein-labeled TAG3 peptide. Aliquots were incubated on ice with a large excess (7 μM) unlabelled peptide for 0, 0.5, 1, 2, and 4 hrs, and analysed on a native 15% polyacrylamide gel (as in Carr & Scott, 1992 supra) except with CaCl2 to 1 mM) in a Hoefer Mighty Small apparatus, and imaged with a cooled CCD-camera based fluorescent gel imaging system developed in collaboration with Confocal Technologies (Liverpool, UK) and Digital Pixel (Brighton, UK).

[5] = tested on: fluoresceinated TAG-3 peptide; assay: Band shift assay of alternative fusion partners with fluoresceinated TAG-3 peptide; type: binding; details: 10 μM fluoresceinated TAG-3, TBSC, High-Density Phast Gel, native
Experimental: 1 μl of purified scFv (D1.3)-CAL (Example 5), scFv(D1.3)-CAL(N-domain), scFv(D1.3)-CAL(C-domain), calmodulin or troponin C were incubated with 10 μM fluoresceinated TAG-3 peptide and 8 μl TBSC. The samples were run on a High-Density Phast Gel (Pharmacia) using native buffer strips, and gel imaged.

[6] = in vivo; cited from earlier work
[7] = tested on: scFv(HyHEL-10)-CAL; type: binding
Experimental: FIG. 8A: Binding of scFv-CAL and MBP-TAG1 detected by surface plasmon resonance (Pharmacia Biacore). 2500 resonance units (RUs) of turkey egg lysozyme (TEL) (Sigma) were immobilized on a microsensor chip of a BIAcore machine (Pharmacia). A solution of […] (5 μg/ml) in TBSC was injected onto the chip (flow rate 5 μl/min), followed by injections of MBP-TAG1 (5 μg/ml), then 20 mM EGTA (to dissociate the complex) and then MBP (New England Biolabs 5 μg/ml).
Thus HEL was immobilised on the microsensor chip, and the chip saturated with scFv(HyHEL-10)-CAL.
(§1) 2500 resonance units (RUs) of turkey egg lysozyme (TEL) (Sigma) were immobilised on a microsensor chip of a BIAcore machine (Pharmacia). A solution of […] (5 μg/ml) in TBSC was injected onto the chip (flow rate 5 μl/min), followed by injections of MBP-TAG1 (5 μg/ml), then 20 mM EGTA (to dissociate the complex) and then MBP (New England Biolabs 5 μg/ml). […] Conditions were as in Example 7 and FIG. 5, except the gel was stained with Coomassie. Lanes: 1, MBP-TAG1 (0.3 mg/ml); 2, scFv (HyHEL10)-CAL (0.08 mg/ml); 3, scFv (HyHEL-10) (0.08 mg/ml)+MBP-TAG1 (0.3 mg/ml).

[8] = tested on: scFv(HyHEL-10)-CAL; assay: Native Phast gel analysis of scFv(HyHEL-10)-CAL and MBP-TAG1 interaction; type: binding
Experimental: FIG. 8B: Homogeneous 20 Native Phast Gel (Pharmacia) for the analysis of scFv(HyHEL-10)-CAL and MBP-TAG1 interaction. Conditions as in FIG. 5, except the gel was stained with Coomassie. Lanes: 1, MBP-TAG1 (0.3 mg/ml); 2, scFv (HyHEL-10)-CAL (0.08 mg/ml); 3, scFv (HyHEL-10) (0.08 mg/ml)+MBP-TAG1 (0.3 mg/ml).
as §1

[9] = Table 1, affinities of calmodulin-binding peptides

C-EIKRAAA-INLKALAALAKKIL-IK-OH [TAG 4]
peptide-calmodulin complex formation (comigration of fluorescent and coomassie bands) [1]: stable complex with calmodulin

QILWFRGLNRIQTQIRVVNAFRSS-NH2 [Ca++ pump]
Kd [2, 9]: 10 nM

COc1ccc2[nH]cc(CCNC(C)=O)c2c1 [Melatonin, melatonin]
detection of calmodulin-melatonin complex on gel (radioactive band) [3]: no complex is detected on band shift assays

IKPAKRMKFKTVCYLLVQLMHCRKMFKA-NH2 [AC-28]
Kd [2, 9]: 2 nM

KRRAIGFKKLAEAVKFSAKLMGQAMAKRVK-NH2 [NO-30]
Kd [2, 9]: 2 nM

C-EIKRAAA-INLKALAALAKKIL-IKRKRQQ-NH2 [TAG 3]
displacement of fluorescent peptide from calmodulin by unlabelled peptide [4]: not significantly displaced from the calmodulin even after four hours competition | peptide-calmodulin complex formation (comigration of fluorescent and coomassie bands) [1]: the upper of these that has bound peptide

calmodulin
complex formation with TAG-3 (fluorescent band) [5]: observed | excretion [6]: rapidly excreted in the urine | immunogenicity [6]: poorly immunogenic | organ accumulation [6]: does not accumulate selectively in any organ | toxicity [6]: not toxic

MBP-TAG1: maltose binding protein with the TAG1 peptide appended at the C-terminus (CEIKRAAAINLKALAALAKKIL)
binding to chip saturated with scFv(HyHEL-10)-CAL ([7]; 5 μg/ml in TBSC): shown to bind to the chip | dissociation of bound protein by EGTA ([7]; 20 mM EGTA): could be dissociated by addition of EGTA | stable complex with scFv calmodulin fusion by gel electrophoresis [8]: form a stable complex

COc1ccc2[nH]c([125I])c(CCNC(C)=O)c2c1 [2-[^125 I]-melatonin]
detection of calmodulin-melatonin complex on gel (radioactive band) [3]: no radioactive band was detected

maltose binding protein [MBP]
binding to chip saturated with scFv(HyHEL-10)-CAL [7]: not

C-EIKRAAA-INLKALAALAKKIL-NH2 (CEIKRAAAINLKALAALAKKIL-NH2) [TAG 1]
peptide-calmodulin complex formation (comigration of fluorescent and coomassie bands) [1]: stable complex with calmodulin

INLKALAALAKKIL-NH2 [Mastoparan]
Kd [2, 9]: 0.3 nM | Ka ([2]; association constant for calmodulin): 3.3e+09 M⁻¹ | Kd ([2]; binding to calmodulin, Malencik and Anderson, 1983): 0.3 nM

troponin C
complex formation with TAG-3 (fluorescent band) [5]: observed; also recorded: binds well

C-EIKRAAA-INLKALAALAKKIL-OH [TAG 2]
peptide-calmodulin complex formation (comigration of fluorescent and coomassie bands) [1]: stable complex with calmodulin
